According to patent US20230357179A1, “RAF KINASE INHIBITORS AND METHODS OF USE THEREOF” (Deciphera Pharmaceuticals, LLC, priority 2021, published 2023):

Tests used:
B-Raf (V600E) kinase = molecular target: T1, B-Raf (V600E) kinase (Homo sapiens, UniProt P15056, V600E); assay: Biochemical assay for B-Raf (V600E).1 (coupled pyruvate kinase/lactate dehydrogenase); conditions: read-out: BRAF V600E.1 IC50
T1 construct: B-Raf (V600E) residues 416-766 with a; GST (N); purchased SignalChem
Outline: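 0.03 nM B-Raf(V600E) phosphorylating 30.1 nM MEK at 1 mM ATP, pH 7.5, coupled to PK/LDH, with NADH oxidation followed at 340 nm for 6 h at 30 °C. Rates taken from the 3-4 h window. IC50 from a four-parameter fit of percent inhibition.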

A-Raf kinase = molecular target: T2, A-Raf kinase (Homo sapiens, UniProt P10398, Y301D/Y302D); assay: Biochemical assay for A-Raf.1 (coupled pyruvate kinase/lactate dehydrogenase); conditions: read-out: ARAF.1 IC50
T2 construct: purchased Sigma
T2 sequence (P10398 with tags, fused parts or gaps Y301D/Y302D): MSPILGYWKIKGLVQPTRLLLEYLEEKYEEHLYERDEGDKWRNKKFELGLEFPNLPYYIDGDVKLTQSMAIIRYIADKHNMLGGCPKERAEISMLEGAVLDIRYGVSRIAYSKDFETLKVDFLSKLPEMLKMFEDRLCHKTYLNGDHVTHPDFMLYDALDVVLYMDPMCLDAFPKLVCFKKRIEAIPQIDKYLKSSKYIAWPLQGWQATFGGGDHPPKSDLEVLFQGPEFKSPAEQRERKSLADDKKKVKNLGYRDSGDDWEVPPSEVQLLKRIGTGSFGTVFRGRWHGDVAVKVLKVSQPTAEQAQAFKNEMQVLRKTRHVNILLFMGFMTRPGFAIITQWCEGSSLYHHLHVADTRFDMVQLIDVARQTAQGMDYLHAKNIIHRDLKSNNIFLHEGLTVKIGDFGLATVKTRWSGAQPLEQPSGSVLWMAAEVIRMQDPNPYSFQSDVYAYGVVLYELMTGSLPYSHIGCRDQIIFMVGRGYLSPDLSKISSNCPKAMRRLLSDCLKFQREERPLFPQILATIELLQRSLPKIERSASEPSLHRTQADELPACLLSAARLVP
Outline: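 A-Raf (5.55 nM) phosphorylating 30.1 nM MEK with 1 mM ATP was monitored by pyruvate kinase/lactate dehydrogenase-coupled NADH oxidation at 340 nm for 6 h at 30° C, in pH 7.5 Tris buffer with 15 mM MgCl2, 1% DMSO. Rates from 4–5 h gave percent inhibition; IC50 by four-parameter fit.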

WM3928 cells = assay: WM3928 cell proliferation assay (1), resazurin, 96-well; type: cell-based; conditions: inhibition of cell proliferation
Outline: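 IC50 was derived from resazurin fluorescence (ex 540, em 600 nm) after a 6–7 h dye incubation. Before that, cells had 67–72 h of compound exposure at 37 °C, 5% CO2.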

A375 cells = assay: A375 cell proliferation assay (1), resazurin, 96-well; type: cell-based; conditions: Homo sapiens, A-375, inhibition of cell proliferation
Outline: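 Viability was read by resazurin fluorescence at 540 nm excitation and 600 nm emission, using a 440 μM solution added for 5–6 h at the end of culture. IC50 came from the curve fit.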

T1 sequence (P15056 416-766 V600E): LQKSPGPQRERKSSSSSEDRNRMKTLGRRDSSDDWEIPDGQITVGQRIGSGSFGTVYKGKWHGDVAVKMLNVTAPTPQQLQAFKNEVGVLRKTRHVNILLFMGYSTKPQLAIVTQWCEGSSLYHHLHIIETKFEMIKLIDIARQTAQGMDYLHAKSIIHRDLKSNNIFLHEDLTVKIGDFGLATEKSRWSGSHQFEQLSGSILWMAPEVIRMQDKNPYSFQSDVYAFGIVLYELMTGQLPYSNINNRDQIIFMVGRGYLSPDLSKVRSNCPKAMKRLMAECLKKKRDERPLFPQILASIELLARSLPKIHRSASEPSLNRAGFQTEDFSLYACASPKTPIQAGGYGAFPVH

Row | SMILES | IC50 (B-Raf (V600E) kinase) [nM] | IC50 (A-Raf kinase) [nM] | IC50 (WM3928 cells) [nM] | IC50 (A375 cells) [nM]
1 | Cc1ccc(NC(=O)N2CC[C@@H](C(F)(F)F)C2)cc1-c1cncc(-c2ccnc(NC(=O)C3CC3)c2)c1 [Example 196] | ≤ 100 | > 1000 | 500 to 1000 | 1000 to 10000
2 | Cc1ccc(NC(=O)N2CC[C@H](C(F)(F)F)C2)cc1-c1cncc(-c2ccnc(NC(=O)C3CC3)c2)c1 [Example 197] | ≤ 100 | 500 to 1000 | 100 to 500 | 100 to 500
3 | Cc1ccc(NC(=O)N2CC[C@H](C(F)(F)F)C2)cc1-c1cccc(-c2cc(NC(=O)C3CC3)ncn2)c1 [Example 200] | ≤ 100 | > 1000 | ≤ 100 | 100 to 500
4 | Cc1ccc(NC(=O)N2CC[C@@H](C(F)(F)F)C2)cc1-c1cccc(-c2cc(NC(=O)C3CC3)ncn2)c1 [Example 201] | ≤ 100 | > 1000 | 100 to 500 | 500 to 1000
5 | COC(=O)Nc1cc(-c2cncc(-c3cc(NC(=O)N4CCCCCC4)ccc3C)c2)ccn1 [Example 202] | 100 to 500 | > 1000 | 1000 to 10000 | 1000 to 10000
6 | COC(=O)Nc1cc(-c2cnnc(-c3cc(NC(=O)N4CCC(C(C)(C)O)C4)ccc3C)c2)ccn1 (centres unmarked) [Example 206] | > 1000 | > 1000 | 1000 to 10000 | 1000 to 10000
7 | Cc1ccc(NC(=O)N2CCC(CC(F)(F)F)C2)cc1-c1cncc(-c2cc(N)ncn2)c1 (centres unmarked) [Example 207] | 500 to 1000 | > 1000 | 500 to 1000 | 1000 to 10000
8 | COC(=O)Nc1cc(-c2cncc(-c3cc(NC(=O)N4CCCCC4)ccc3C)c2)ccn1 [Example 208] | > 1000 | > 1000 | 500 to 1000 | 500 to 1000
9 | Cc1ccc(NC(=O)N2CCC(F)(F)C2)cc1-c1cncc(-c2cc(NC(=O)C3CC3)ncn2)c1 [Example 209] | 100 to 500 | > 1000 | 1000 to 10000 | 1000 to 10000
10 | Cc1ccc(NC(=O)N2CC[C@@H](C(F)(F)F)C2)cc1-c1cncc(-c2cc(NC(=O)C3CC3)ncn2)c1 [Example 210] | ≤ 100 | 500 to 1000 | 100 to 500 | 100 to 500
11 | COC(=O)Nc1cc(-c2cncc(-c3cc(NC(=O)N4CC[C@H](C(F)(F)F)C4)ccc3C)c2)ccn1 [Example 211] | ≤ 100 | > 1000 | 100 to 500 | 500 to 1000
12 | COC(=O)Nc1cc(-c2cncc(-c3cc(NC(=O)N4CCCC4)ccc3C)c2)ccn1 [Example 213] | 500 to 1000 | > 1000 | 1000 to 10000 | 1000 to 10000
13 | CNC(=O)c1cc(-c2cncc(-c3cc(NC(=O)N4CC[C@H](C(F)(F)F)C4)c(F)cc3C)c2)ccn1 [Example 214] | 100 to 500 | > 1000 | 1000 to 10000 | 1000 to 10000
14 | Cc1cc(F)c(NC(=O)N2CC[C@H](C(F)(F)F)C2)cc1-c1cncc(-c2cc(NC(=O)C3CC3)ncn2)c1 [Example 216] | ≤ 100 | 100 to 500 | ≤ 100 | 100 to 500
15 | Cc1ccc(NC(=O)N2CC[C@@H](C(C)C)C2)cc1-c1cncc(-c2cc(NC(=O)C3CC3)ncn2)c1 [Example 217] | ≤ 100 | 100 to 500 | ≤ 100 | ≤ 100
16 | Cc1ccc(NC(=O)N2CCC3(CC3)C2)cc1-c1cncc(-c2cc(NC(=O)C3CC3)ncn2)c1 [Example 218] | ≤ 100 | > 1000 | 100 to 500 | 100 to 500
17 | Cc1ccc(NC(=O)N2CC[C@@H](C)C2)cc1-c1cncc(-c2cc(NC(=O)C3CC3)ncn2)c1 [Example 219] | 100 to 500 | > 1000 | 500 to 1000 | 500 to 1000
18 | Cc1ccc(NC(=O)N2CC[C@H](C(C)C)C2)cc1-c1cncc(-c2cc(NC(=O)C3CC3)ncn2)c1 [Example 221] | ≤ 100 | 100 to 500 | ≤ 100 | ≤ 100
19 | COC(=O)Nc1cc(-c2cc(-c3cc(NC(=O)N4CCC(C(F)(F)F)C4)ccc3C)cc(OCCO)n2)ccn1 (centres unmarked) [Example 222] | ≤ 100 | > 1000 | ≤ 100 | 100 to 500
20 | COC(=O)Nc1cc(-c2cc(-c3cc(NC(=O)N4CC[C@H](C(F)(F)F)C4)ccc3C)nc(C)n2)ccn1 [Example 223] | > 1000 | > 1000 | 1000 to 10000 | 1000 to 10000
